Here are results for 7 molecules from article PMC7281614, “Induction of Antibacterial Metabolites by Co-Cultivation of Two Red-Sea-Sponge-Associated Actinomycetes Micromonospora sp. UR56 and Actinokinespora sp. EG49” (Marine Drugs, 2020).

The nature of one series: in vitro. Particulars: human. How it is done: (§1) The cell lines were purchased from ATCC by (VACSERA), Cairo, Egypt. […] The cell lines were used to detect the inhibitory effects of isolated compounds on cell growth. Cell viability was determined via colorimetric assay (MTT), which is based on the transformation of the yellow tetrazolium bromide to a purple formazan by mitochondrial succinate dehydrogenase. […] Subsequently, the cells were mixed with different concentrations of the isolated compounds and incubated for a further 24 h, and then treated with 20 µL of MTT solution at a concentration of 5 mg/mL and incubated for 4 h. […] The relative cell viability as a percentage was calculated as A570 of treated samples/A570 of untreated sample × 100.

The target of series [1] is Staphylococcus pyruvate kinase (PK) (Staphylococcus aureus, UniProt Q6GG09). The experiment in a line: In vitro enzyme assay, pyruvate kinase inhibition. Particulars: IC50 ± SD. Type of series: biochemical. The protocol:
(§2) DNA gyrase (type II topoisomerase) and topoisomerase IV (ParE) add negative supercoils into DNA using ATP hydrolysis as a source of energy. They are considered crucial bacterial enzymes that are absent in eukaryotes. DNA-gyrase-B- and ParE-inhibitory activities were evaluated using the Inspiralis assay kit (Inspiralis®, London, UK) on streptavidin-coated 96 well microtiter plates (Thermo Scientific, Hamburg, Germany), according to the manufacturer’s protocol. The assay detects the ability of the isolated compounds to prevent the ATPase activity of both gyrase-B and ParE subunits. On the other hand, pyruvate kinase (PK) has been discovered to be an important hub protein in the interactome of MRSA [52]. The PK-inhibitory activity of the isolated compounds was assessed according to a previously reported method.

The target in series [2] is T1, Staphylococcus DNA gyrase-B (Staphylococcus aureus, UniProt P0A0K8).
T1 construct: purchased Inspiralis
T1 sequence (P0A0K8 whole entry): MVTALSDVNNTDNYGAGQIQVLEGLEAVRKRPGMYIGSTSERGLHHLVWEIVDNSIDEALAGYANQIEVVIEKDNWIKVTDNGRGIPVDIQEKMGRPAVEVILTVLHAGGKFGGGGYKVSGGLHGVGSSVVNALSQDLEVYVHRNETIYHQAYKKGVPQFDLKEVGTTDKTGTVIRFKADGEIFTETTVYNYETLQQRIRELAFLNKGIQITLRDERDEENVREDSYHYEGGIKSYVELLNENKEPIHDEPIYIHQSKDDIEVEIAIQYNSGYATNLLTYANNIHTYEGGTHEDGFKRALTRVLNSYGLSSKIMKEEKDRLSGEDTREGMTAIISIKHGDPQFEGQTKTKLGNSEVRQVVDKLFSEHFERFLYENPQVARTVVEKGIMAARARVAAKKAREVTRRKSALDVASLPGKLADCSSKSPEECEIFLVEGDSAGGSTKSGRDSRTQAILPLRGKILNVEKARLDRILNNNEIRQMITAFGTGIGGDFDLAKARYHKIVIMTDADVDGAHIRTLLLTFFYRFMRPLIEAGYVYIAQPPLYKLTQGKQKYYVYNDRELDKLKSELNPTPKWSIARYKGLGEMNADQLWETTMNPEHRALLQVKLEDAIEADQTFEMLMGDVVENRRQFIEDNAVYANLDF
T1 sequence (P20831 whole entry partner): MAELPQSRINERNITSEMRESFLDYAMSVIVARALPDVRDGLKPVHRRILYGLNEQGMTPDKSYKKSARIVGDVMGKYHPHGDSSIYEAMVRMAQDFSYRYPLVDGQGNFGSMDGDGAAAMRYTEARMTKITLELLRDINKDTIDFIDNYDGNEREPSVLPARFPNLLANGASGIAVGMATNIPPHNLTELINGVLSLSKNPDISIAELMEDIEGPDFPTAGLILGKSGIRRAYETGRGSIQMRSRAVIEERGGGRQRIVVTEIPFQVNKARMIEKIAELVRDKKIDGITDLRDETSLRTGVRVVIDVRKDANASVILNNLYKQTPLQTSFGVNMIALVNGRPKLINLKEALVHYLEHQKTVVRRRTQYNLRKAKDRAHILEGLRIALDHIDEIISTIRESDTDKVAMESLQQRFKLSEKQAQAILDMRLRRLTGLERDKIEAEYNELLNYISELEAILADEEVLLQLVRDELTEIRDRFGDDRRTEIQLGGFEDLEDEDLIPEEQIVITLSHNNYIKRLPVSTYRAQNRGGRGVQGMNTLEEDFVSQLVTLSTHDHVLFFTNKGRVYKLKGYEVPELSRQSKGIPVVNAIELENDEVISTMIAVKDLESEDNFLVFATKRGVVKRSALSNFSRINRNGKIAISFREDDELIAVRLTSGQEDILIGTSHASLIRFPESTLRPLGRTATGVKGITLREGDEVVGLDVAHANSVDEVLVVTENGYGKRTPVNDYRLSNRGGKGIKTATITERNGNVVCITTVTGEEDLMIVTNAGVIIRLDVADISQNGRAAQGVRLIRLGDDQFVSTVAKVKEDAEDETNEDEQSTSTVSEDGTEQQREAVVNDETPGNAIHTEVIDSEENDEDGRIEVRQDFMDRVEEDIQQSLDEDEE
The experiment in a line: In vitro enzyme assay, DNA gyrase-B ATPase (Inspiralis kit). It counts as biochemical. The protocol: as §2

The next series concerns HCT116. Put plainly: Cytotoxic activity, MTT assay. Particulars: Homo sapiens, HCT-116, 24 h, read-out: Cytotoxic activity (IC50) HCT116. The protocol: as §1
(Tetrazolium assays rely on reduction of a dye to a coloured formazan, in cell work by metabolically active cells.)

A further series concerns MCF7. The experiment in a line: Cytotoxic activity, MTT assay. Particulars: Homo sapiens, MCF7, 24 h, read-out: Cytotoxic activity (IC50) MCF7. The protocol:
as §1

The subject of another series is HePG-2. Put plainly: Cytotoxic activity, MTT assay. It counts as cell-based. Particulars: Homo sapiens, read-out: Cytotoxic activity (IC50) HePG-2. From the text:
(§3) Doxorubicin was used as a positive control drug.

For series [3], the system named is Escherichia coli ATCC25922. The experiment in a line: Antibacterial activity, growth inhibition in 96 well plates (OD600). It counts as cell-based. The protocol:
(§4) The antibacterial activity of all isolated pure compounds (1–3, 9, and 10) was evaluated on Gram-positive pathogenic bacteria such as Bacillus subtilis (ATCC29212) and Staphylococcus aureus (ATCC9144 (and Gram-negative pathogenic bacteria such as Escherichia coli. (ATCC25922) and Pseudomonas aeruginosa (ATCC27853), as previously reported. The tests were carried out in 96 well flat polystyrene plates. First, 10 μL of each isolated compound (15 µM) was transferred to 80 μL of lysogeny broth followed by the addition of 10 μL of bacterial suspension at log phase, and then all inoculated plates were incubated overnight at 37 °C. […] The absorbance was observed after 20 h at OD600 in a Spectrostar Nano Microplate Reader (BMG LABTECH GmbH, Allmendgrun, Germany). The positive control was pathogenic bacteria plus distilled water, while the negative control was growth medium plus distilled water.

Series [4] has as its system Staphylococcus aureus ATCC9144. Described as above. Type of series: cell-based. Particulars: NA: no activity; for inhibition at 15 µM: Staphylococcus aureus, ATCC9144, at 15 µM; for Growth inhibition % Staphylococcus aureus: at 15 µM, 15 µM. How it is done:
as §4

Series [5] relates to Bacillus subtilis ATCC29212. The series is described as above. It counts as cell-based. The protocol:
as §4

Series [6] relates to Pseudomonas aeruginosa ATCC27853. The series is described as above. To be noted: NA: no activity; for inhibition at 15 µM: Pseudomonas aeruginosa; for Growth inhibition % Pseudomonas aeruginosa: at 15 µM, 15 µM. It counts as cell-based. The protocol: as §4
A further series relates to S. aureus. The experiment in a line: Antibiofilm activity, crystal violet staining. Type of series: cell-based, Staphylococcus aureus. To be noted: NA: no activity; for inhibition at 2 µM: Staphylococcus aureus; for Antibiofilm activity (% inhibition) S. aureus: at 2 µM, 2 µM. The protocol: (§5) The biofilm-inhibitory activities of the isolated pure compounds (1–3, 9, and 10) were measured using 96 well flat polystyrene plates against four clinical microbes comprising Gram-positive (Bacillus subtilis and Staphylococcus aureus) and Gram-negative (Escherichia coli and Pseudomonas aeruginosa) pathogenic bacteria, according to Antunes, et al. with some modifications. Briefly, each well was filled with 180 µL lysogeny broth (LB broth) and then inoculated with 10 µL of pathogenic bacteria followed by addition of 10 µL of sample (2 µM) along with control (without test sample). All inoculated plates were then incubated overnight at 37 °C and, after incubation, content in the wells was removed and wells were rinsed with 200 µL of phosphate-buffered saline (PBS) pH 7.2 to eliminate free-floating microbes and left to dry under sterilized laminar flow for 1 h. For staining, 200 µL/well of crystal violet (0.1%, w/v) was added, left for 1 h, and then excessive stain was removed and plates retained for drying. Further, dried plates were rinsed with 95% ethanol and optical density was measured at 570 nm using a Spectrostar Nano Microplate Reader (BMG LABTECH GmbH, Allmendgrun, Germany).

For the next series, the system named is E. coli. Put plainly: Antibiofilm activity, crystal violet staining. Type of series: cell-based. To be noted: Escherichia coli, read-out: Antibiofilm activity (% inhibition) E. coli. How it is done:
as §5

For a further series, the system named is B. subtilis. The experiment in a line: Antibiofilm activity, crystal violet staining. Type of series: cell-based. Particulars: Bacillus subtilis, NA: no activity. The protocol: as §5
A further series deals with P. aeruginosa. The experiment in a line: Antibiofilm activity, crystal violet staining. It counts as cell-based, Pseudomonas aeruginosa. Particulars: for inhibition at 2 µM: Pseudomonas aeruginosa. The protocol: as §5
The subject of series [7] is four human cancer cell lines. Put plainly: Cytotoxic activity, MTT assay, all four tested cell lines together. It counts as cell-based. Particulars: range over WI38, HCT116, HePG-2, MCF7, read-out: IC50 values towards the tested cell lines (range).
Text: as §3

Setting [8] is: IC50 ± SD, read-out: IC50 (µM) Gyr-B.
[9] abbreviates: ATCC25922, at 15 µM, NA: no activity, read-out: Growth inhibition % Escherichia coli.
[10] abbreviates: ATCC29212, at 15 µM, NA: no activity, read-out: Growth inhibition % Bacillus subtilis.
The mark [11] stands for this setting: ATCC27853, at 15 µM, read-out: Growth inhibition % Pseudomonas aeruginosa.
Setting [12] is: at 2 µM, read-out: Antibiofilm activity (% inhibition) P. aeruginosa.

Like-named read-outs stand apart in the source and are kept apart here.

Sequence of Staphylococcus pyruvate kinase (PK) (Q6GG09 whole entry): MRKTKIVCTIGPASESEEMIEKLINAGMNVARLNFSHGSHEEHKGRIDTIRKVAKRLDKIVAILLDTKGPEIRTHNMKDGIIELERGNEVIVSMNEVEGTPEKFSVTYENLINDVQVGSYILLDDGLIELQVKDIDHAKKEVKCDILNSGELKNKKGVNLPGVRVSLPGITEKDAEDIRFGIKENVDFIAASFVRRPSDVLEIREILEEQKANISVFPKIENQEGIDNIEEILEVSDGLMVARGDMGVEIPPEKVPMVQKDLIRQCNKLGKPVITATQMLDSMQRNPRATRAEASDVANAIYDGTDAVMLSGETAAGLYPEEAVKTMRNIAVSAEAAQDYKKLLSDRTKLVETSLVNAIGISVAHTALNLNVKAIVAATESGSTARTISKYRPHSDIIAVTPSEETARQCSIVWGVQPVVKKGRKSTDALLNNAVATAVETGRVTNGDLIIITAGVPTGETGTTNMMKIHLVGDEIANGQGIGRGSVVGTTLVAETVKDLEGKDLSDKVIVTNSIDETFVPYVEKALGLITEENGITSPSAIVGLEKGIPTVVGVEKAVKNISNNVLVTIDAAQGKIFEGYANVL

Regarding `COC(=O)c1cccc2nc3c(C(=O)OC)cccc3nc12` [Compound 1, dimethyl phenazine-1,6-dicarboxylate], in the series “in vitro”, the half-maximal inhibitory concentration (IC50) (commonly the concentration at which inhibition is half-maximal) at 24 h was 63.2 ± 3.6 µM. Also, the IC50 was 7.2 ± 0.07 µM in series [1]; 19.2 ± 1.69 µM in series [2] (setting [8]); 85 ± 3.9 µM in the series on HCT116; more than 100 µM in the series with MCF7; 92.1 ± 4.7 µM in the series on HePG-2 (HepG2, 24 h). The inhibition (commonly how much of the control response was suppressed) at 15 µM in series [3] (setting [9]) was determined as 9.93 ± 1.3%; in series [4], 47%; in series [5] (setting [10]), 19.6 ± 1.5%; in [6] (setting [11]), 23.4 ± 1.7%. In addition, the “Growth inhibition % Staphylococcus aureus” value in series [4] is 57.19 ± 1.2%. Also, the inhibition at 2 µM in the series on S. aureus was 50%; with E. coli (at 2 µM), 36.7 ± 2.9%; in the series with B. subtilis, 12.1 ± 3.2%; with P. aeruginosa (setting [12]), 18.4 ± 0.9%. Moreover, in the series with S. aureus, the “Antibiofilm activity (% inhibition) S. aureus” value was determined as 50.26 ± 0.4%.
As to `COC(=O)c1cccc2nc3c(C(=O)O)cccc3nc12` [Compound 2, phenazine-1,6-dicarboxylic acid mono methyl ester], half-maximal inhibition in “in vitro” (IC50 at 24 h) required 76.3 ± 3.9 µM. For the same molecule, the IC50 in [1] came to 9.3 ± 0.03 µM; in series [2] (setting [8]), 21.3 ± 2.36 µM; in the series on HCT116 it was 60.8 ± 3.5 µM; in the series with MCF7 it was 82.2 ± 4.4 µM; in the series with HePG-2 (HepG2, 24 h), 76.1 ± 3.9 µM. In addition, the inhibition at 15 µM was found to be 11.2 ± 1.4% in series [3] (setting [9]), 69% in series [4], 32.1 ± 1.3% in series [5] (setting [10]) and 23.2 ± 2.2% in series [6] (setting [11]). In series [4], the “Growth inhibition % Staphylococcus aureus” value is reported as 68.87 ± 0.8%. In addition, the inhibition at 2 µM was 75% with S. aureus, 54.1 ± 2.5% in the series with E. coli (at 2 µM), 18.6 ± 1.6% with B. subtilis and 22.3 ± 1.5% in the series on P. aeruginosa (setting [12]). Further, the “Antibiofilm activity (% inhibition) S. aureus” value with S. aureus is recorded as 75.10 ± 2.4%.
In the case of `O=C(O)c1cccc2nc3ccccc3nc12` [Compound 3, phenazine-1-carboxylic acid], in “in vitro”, the IC50 at 24 h worked out at 51.2 ± 3.2 µM. The IC50 in [1] is 22.5 ± 0.04 µM; in series [2], 27.7 ± 1.08 µM; in the series on HCT116 it was 91.3 ± 4.6 µM; in the series with MCF7, more than 100 µM; in the series with HePG-2 (HepG2, 24 h) it was more than 100 µM. For the same molecule, the inhibition at 15 µM in [3] (ATCC25922, read-out: Growth inhibition % Escherichia coli) worked out at 24.3 ± 1.8%; in [5] (ATCC29212, read-out: Growth inhibition % Bacillus subtilis), 1.69 ± 1.2%; in [6] (ATCC27853, read-out: Growth inhibition % Pseudomonas aeruginosa, at 15 µM), 94%. Further, in series [6], the “Growth inhibition % Pseudomonas aeruginosa” value was 94.17 ± 2.8%. Further, the inhibition at 2 µM in the series with E. coli came out at 54.7 ± 1.4%; in the series with P. aeruginosa (read-out: Antibiofilm activity (% inhibition) P. aeruginosa, at 2 µM), 94%. Moreover, the “Antibiofilm activity (% inhibition) P. aeruginosa” value with P. aeruginosa (at 2 µM) was 93.98 ± 2.2%.
As for `CC(=O)Nc1ccccc1O` [Compound 9, N-(2-hydroxyphenyl)-acetamide], the IC50 at 24 h in the series “in vitro” was 36.5 ± 2.3 µM. Also, the IC50 with HCT116 was 14.6 ± 1.2 µM; in the series with MCF7 it was 12.7 ± 1.1 µM; in series [7], 10 to 36 µM; in the series on HePG-2 (HepG2, 24 h), 10.2 ± 0.9 µM. Further, in series [6] (setting [11]), the inhibition at 15 µM worked out at 4.74 ± 1.6%. Also, the inhibition at 2 µM with S. aureus is 11.5 ± 2.9%; with E. coli (at 2 µM), 34.5 ± 2.6%; in the series on B. subtilis, 4.91 ± 1.8%; in the series with P. aeruginosa (setting [12]), 7.39 ± 1.9%.
In “in vitro”, `COc1ccc(C(N)=O)cc1` [Compound 10, p-anisamide] registered an IC50 at 24 h of more than 100 µM. The IC50 in the series with HCT116 was more than 100 µM; with MCF7, more than 100 µM; in the series on HePG-2 (HepG2, 24 h), more than 100 µM. In addition, the inhibition at 15 µM turned out to be 19.3 ± 2.5% in series [3] (setting [9]), 53.2 ± 1.2% in series [4], 42.2 ± 1.9% in series [5] (setting [10]) and 70% in series [6] (setting [11]). For the same molecule, the “Growth inhibition % Pseudomonas aeruginosa” value in series [6] turned out to be 70.23 ± 1.1%. Besides, the inhibition at 2 µM turned out to be 61.2 ± 3.7% in the series with S. aureus, 57.5 ± 3.1% with E. coli (at 2 µM), 20.3 ± 1.1% in the series on B. subtilis and 73% in the series on P. aeruginosa (setting [12]). In addition, the “Antibiofilm activity (% inhibition) P. aeruginosa” value with P. aeruginosa (at 2 µM) was found to be 73.52 ± 1.3%.
As to `COc1cccc2c1C(=O)c1c(O)c3c(c(O)c1C2=O)C[C@@](O)(C(=O)CO)C[C@@H]3O[C@H]1C[C@H](N)[C@H](O)[C@H](C)O1` [Doxorubicin, reference compound], the IC50 with HePG-2 (HepG2, MTT, 24 h, table title prints "at 2 µM") worked out at 4.5 ± 0.2 µM.
On to `CNC(C)C1CCC(N)C(OC2C(N)CC(N)C(OC3OCC(C)(O)C(NC)C3O)C2O)O1` (centres unmarked) [Gentamicin, reference compound], for which the inhibition at 15 µM in [3] (setting [9]) was found to be 99 ± 0.6%; in [4], 99.1 ± 0.7%; in series [5] (setting [10]) it was 97 ± 1.6%; in [6] (setting [11]) it was 99.7 ± 0.2%.
